Reference: patent US11352400B2, “PI3K gamma inhibitor peptide for treatment of respiratory system diseases” (Kither Biotech S.r.I., priority 2014, dated 2022)

Key:
β2-AR/cAMP signaling = experiment: FRET imaging of cAMP (ICUE3 probe) in hBSMCs after β2-AR stimulation; type: cell-based, human; details: hBSMCs pre-treated 50 μM, 30 minutes; ISO 100 nM + CGP-20712A 100 nM
Protocol: Human bronchial smooth muscle cells (hBSMCs) were transfected with a plasmid encoding the FRET probe for cAMP, ICUE3 (described in the U.S. Pat. No. 8,236,523 B2) (2), by electroporation with a Nucleofector device (AMAXA, Gaithersburg, Md.), according to the manufacturer's protocol. Briefly, 1×10^6 cells were re-suspended in 100 μL of nucleofection solution (VPI-1004, AMAXA, Gaithersburg, Md.), mixed with 1 μg of pcDNA3-ICUE3 (described in U.S. Pat. No. 8,236,523 B2), and subjected to electroporation in a nucleofection apparatus of Amaxa Biosystems (Program A-033). Live cell imaging experiments were performed at 24 hours after transfection.
Measurements of cAMP levels were performed on human bronchial smooth muscle cells (hBSMCs) that express the FRET probe ICUE3, as described previously (2). Briefly, cells were maintained in a K^+-Ringer solution containing (in mmol/L) 121.6 NaCl, 5.4 KCl, 1.8 MgCl2, 1.8 CaCl2, 4 NaHCO3, 0.8 NaH2PO4, 5 D-glucose, 5 sodium pyruvate, 10 HEPES, at pH 7.4. […] FRET efficiency was calculated using the “Method 3” provided by the Leica wizard application for FRET imaging and sensitized emission, according to which: EA(i)=B/A, where EA(i) is the apparent FRET efficiency; A and B are the intensities of the CFP channel and FRET, respectively. […]

PDE4D = experiment: Phosphodiesterase activity in anti-PDE4D immunoprecipitates from treated tracheal smooth muscle cells; type: cell-based, mouse; details: tracheal smooth muscle cells of wild-type mice (PI3Kγ+/+); 50 μM, 30 minutes
Protocol: (§1) For protein extraction from murine tracheal smooth muscle cells (mTSMCs) and human bronchial smooth muscle cells (hBSMCs), cells were treated with the indicated drugs/peptides and immediately lysed in cold lysis buffer containing 120 mmol/L NaCl, 50 mmol/L Tris-HCl (pH 8.0), complete protease inhibitors (Roche Applied Science, Indianapolis, Ind.) and phosphatase inhibitors (50 mmol/L sodium fluoride, 1 mmol/L sodium orthovanadate and 10 mmol/L sodium pyrophosphate). After 30 min of incubation on ice, lysates were centrifuged at 13000 rpm for 10 min at 4° C. and used for either Western blotting or subjected to immunoprecipitation and measurements of phosphodiesterase activity. […]
(§2) Phosphodiesterase activity in immunoprecipitates was measured according to the two-step method of Thompson and Appleman, as previously described (2), with minor modifications. […] The amount of radiolabeled adenosine in the supernatant was quantified by scintillation counting (Ultima Gold liquid scintillation from Perkin Elmer, Waltham, Mass.).
(§3) Murine tracheal smooth muscle cells were cultured from explants of trachea using previously described methods with modifications. […] More than 90% of these cells were smooth muscle cells, as determined by immunofluorescence performed with an antibody specific for smooth muscle actin. […]

PDE4B = experiment: Phosphodiesterase activity in anti-PDE4B immunoprecipitates from treated tracheal smooth muscle cells; type: cell-based, mouse; details: tracheal smooth muscle cells of wild-type mice (PI3Kγ+/+); 50 μM, 30 minutes
Protocol: as §1, §2, §3

hBSMCs = experiment: Measurements of calcium transients (Indo-1) in hBSMCs; type: cell-based, human; details: 50 μM, 30 minutes
Protocol: Cells were washed with a Tyrode solution containing (in mmol/L): 5 HEPES, 154 NaCl, 4 KCl, 2 CaCl2, 1 MgCl2, 5.5 D-glucose, at pH 7.35 and placed on an inverted microscope. Cells were kept in Tyrode solution and treated with a KCl depolarizing solution containing (in mmol/L): 5 HEPES, 118 NaCl, 40 KCl, 2 CaCl2, 1 MgCl2, 5.5 D-glucose, at pH 7.35. Calcium transients were analyzed as the ratio of fluorescence signals measured at 400 nm and 490 nm following excitation of Indo-1-AM-loaded cells at 350 nm. Experiments were recorded and analyzed with Igor® Software, using the functions added by Jason Rothman (Neuromatic, www.thinkrandom.com).

## RQIKIWFQNRRMKWKKGKATHRSPGQIHLVQRHPPSEESQAF (fusion peptide comprising SEQ ID No.1 and SEQ ID No.3) [Trojan peptide derived from PI3Kγ]
β2-AR/cAMP signaling
  increase of cAMP accumulation following stimulation of β2-ARs: 35%
PDE4D
  catalytic activity of PDE4D: significantly reduced
PDE4B
  catalytic activity of PDE4B: significantly reduced
hBSMCs; 40 mM KCl depolarizing solution
  influx of Ca2+ induced by KCl (through VOCCs): completely abolished
hBSMCs; carbachol 10 μM, vs vehicle or P1
  maximum peak of Ca2+ transients induced by carbachol: significantly lower
